The results in this text go back to ChEMBL document CHEMBL4219030, “Progress in the discovery of small molecule modulators of the Cys-loop superfamily receptors” (Bioorg Med Chem Lett, 2017).

In assay [1] the target is Gamma-aminobutyric acid receptor subunit alpha-4/beta-2/delta (Homo sapiens, UniProt O14764+P47870+P48169). Description: Positive allosteric modulation of GABAA receptor alpha4beta2delta (unknown origin). The class given is protein-complex assay.
In assay [2] the target is GABA-A receptor; alpha-1/beta-2/gamma-2 (Homo sapiens, UniProt P14867+P18507+P47870). In words: Positive allosteric modulation of GABAA receptor alpha1beta2gamma2 (unknown origin). The class given is protein-complex assay.
Assay [3] addresses T1, 5-hydroxytryptamine receptor 3A (Homo sapiens, UniProt P46098).
T1 sequence (P46098 whole entry): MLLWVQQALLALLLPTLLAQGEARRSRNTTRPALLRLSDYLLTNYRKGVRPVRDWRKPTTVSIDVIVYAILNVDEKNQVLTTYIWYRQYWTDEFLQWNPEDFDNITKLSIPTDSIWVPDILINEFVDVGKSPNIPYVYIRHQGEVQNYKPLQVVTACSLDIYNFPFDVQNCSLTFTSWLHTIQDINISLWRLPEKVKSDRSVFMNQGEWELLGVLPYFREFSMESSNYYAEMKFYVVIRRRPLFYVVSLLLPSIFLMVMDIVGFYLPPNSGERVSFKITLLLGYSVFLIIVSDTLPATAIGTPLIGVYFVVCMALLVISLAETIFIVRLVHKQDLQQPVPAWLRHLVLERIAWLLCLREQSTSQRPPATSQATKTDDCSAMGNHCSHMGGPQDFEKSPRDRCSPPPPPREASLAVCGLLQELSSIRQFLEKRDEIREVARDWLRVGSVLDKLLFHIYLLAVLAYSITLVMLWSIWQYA
In words: Antagonist activity at 5-HT3A receptor (unknown origin) assessed as inhibition of serotonin-induced peak currents.

Assay [4] deals with Neuronal acetylcholine receptor subunit alpha-7 (Homo sapiens, UniProt P36544). In words: Inhibition of human alpha7 nAChR expressed in Xenopus oocytes at -80 mV holding potential by electro-physiological analysis. The assay is classed as cell-based.
In assay [5] the target is Gamma-aminobutyric acid receptor subunit alpha-1/beta-3/gamma-2 (Rattus norvegicus, UniProt P18508+P62813+P63079). Description: Displacement of [3H]-flunitrazepam from recombinant rat GABAA receptor alpha1beta3gamma2S expressed in HEK293 cell membranes after 90 mins by liquid scintillation counting method. On the technique in general: Displacement assays read how much labelled ligand stays bound in the presence of the test substance.

For assay [6], the target named is Gamma-aminobutyric acid receptor subunit alpha-2/beta-3/gamma-2 (Rattus norvegicus, UniProt P18508+P23576+P63079). Description: Displacement of [3H]-flunitrazepam from recombinant rat GABAA receptor alpha2beta3gamma2S expressed in HEK293 cell membranes after 90 mins by liquid scintillation counting method.
For assay [7], the target named is Gamma-aminobutyric acid receptor subunit alpha-3/beta-3/gamma-2 (Rattus norvegicus, UniProt P18508+P20236+P63079). Description: Displacement of [3H]-flunitrazepam from recombinant rat GABAA receptor alpha3beta3gamma2S expressed in HEK293 cell membranes after 90 mins by liquid scintillation counting method.
Assay [8] deals with GABA A receptor alpha-5/beta-3/gamma-2 (Rattus norvegicus, UniProt P18508+P19969+P63079). In words: Displacement of [3H]-flunitrazepam from recombinant rat GABAA receptor alpha5beta3gamma2S expressed in HEK293 cell membranes after 90 mins by liquid scintillation counting method.
Assay [9] can be described thus: Positive allosteric modulation of wild-type C57BL/6J mouse mitral cell GABAA receptor at 9 to 10 mV holding potential by whole cell patch-clamp method. In general terms: The patch-clamp technique gives a direct electrical read-out from membranes.
In assay [10] the target is T2, Glycine receptor subunit alpha-1 (Homo sapiens, UniProt P23415).
T2 sequence (P23415 whole entry): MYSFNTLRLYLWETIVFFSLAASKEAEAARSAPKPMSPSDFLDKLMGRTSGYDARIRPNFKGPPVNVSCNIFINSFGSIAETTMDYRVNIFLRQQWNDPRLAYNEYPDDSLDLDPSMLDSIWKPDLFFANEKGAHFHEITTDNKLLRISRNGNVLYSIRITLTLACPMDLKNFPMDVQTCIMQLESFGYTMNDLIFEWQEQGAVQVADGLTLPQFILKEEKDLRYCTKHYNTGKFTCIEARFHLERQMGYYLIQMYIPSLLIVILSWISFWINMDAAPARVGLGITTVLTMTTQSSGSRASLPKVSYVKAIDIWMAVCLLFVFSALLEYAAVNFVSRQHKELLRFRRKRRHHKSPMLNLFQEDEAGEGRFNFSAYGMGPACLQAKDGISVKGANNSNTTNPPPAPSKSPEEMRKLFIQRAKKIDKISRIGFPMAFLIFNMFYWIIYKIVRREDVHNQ
Description: Positive allosteric modulation of recombinant human glycine receptor alpha1 expressed in HEK293 cells assessed as increase in glycine-induced current at -60 mV holding potential by whole cell patch-clamp method. The assay is classed as cell-based.

The target of assay [11] is T3, Glycine receptor subunit alpha-1 (Homo sapiens) (UniProt P23415).
T3 sequence (whole entry): T2 sequence (P23415 whole entry)
In words: Positive allosteric modulation of recombinant human glycine receptor alpha1 expressed in HEK293 cells assessed as potentiation of glycine-induced current at -60 mV holding potential by whole cell patch-clamp method relative to 10 uM glycine. The assay is classed as cell-based.

Assay [12] concerns the target Glycine receptor alpha-3/beta (Homo sapiens, UniProt O75311+P48167). In words: Inhibition of recombinant human glycine receptor alpha3beta expressed in HEK293 cells. The assay is classed as cell-based.
In assay [13] the target is Glycine receptor (alpha-1/beta) (Homo sapiens, UniProt P23415+P48167). In words: Inhibition of recombinant human glycine receptor alpha1beta expressed in HEK293 cells. The class given is cell-based.
In assay [14] the target is Glycine receptor subunit alpha-2/beta (Homo sapiens, UniProt P23416+P48167). In words: Inhibition of recombinant human glycine receptor alpha2beta expressed in HEK293 cells. The assay is classed as cell-based.

For orientation: EC50 means the midpoint of the concentration-response curve. For orientation: IC50 means the midpoint of a concentration-inhibition curve. As usually defined, the Ki is a measure of affinity in units of concentration, obtained from inhibition or displacement.

Chain of Glycine receptor (alpha-1/beta) (P48167 whole entry, one chain of several): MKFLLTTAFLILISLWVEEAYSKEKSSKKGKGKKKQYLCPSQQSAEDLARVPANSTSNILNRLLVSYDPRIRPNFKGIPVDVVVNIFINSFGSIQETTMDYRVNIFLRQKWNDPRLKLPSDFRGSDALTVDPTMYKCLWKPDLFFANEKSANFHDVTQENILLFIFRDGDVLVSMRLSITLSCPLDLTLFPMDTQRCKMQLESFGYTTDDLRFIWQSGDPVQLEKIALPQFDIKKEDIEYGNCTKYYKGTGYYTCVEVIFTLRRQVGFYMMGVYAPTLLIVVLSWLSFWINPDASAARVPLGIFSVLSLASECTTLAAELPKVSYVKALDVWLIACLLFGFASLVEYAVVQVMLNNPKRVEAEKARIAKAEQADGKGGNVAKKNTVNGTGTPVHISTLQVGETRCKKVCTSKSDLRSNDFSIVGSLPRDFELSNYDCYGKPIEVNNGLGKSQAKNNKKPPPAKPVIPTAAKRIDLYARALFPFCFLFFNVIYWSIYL
Chain of Glycine receptor subunit alpha-2/beta (P23416 whole entry): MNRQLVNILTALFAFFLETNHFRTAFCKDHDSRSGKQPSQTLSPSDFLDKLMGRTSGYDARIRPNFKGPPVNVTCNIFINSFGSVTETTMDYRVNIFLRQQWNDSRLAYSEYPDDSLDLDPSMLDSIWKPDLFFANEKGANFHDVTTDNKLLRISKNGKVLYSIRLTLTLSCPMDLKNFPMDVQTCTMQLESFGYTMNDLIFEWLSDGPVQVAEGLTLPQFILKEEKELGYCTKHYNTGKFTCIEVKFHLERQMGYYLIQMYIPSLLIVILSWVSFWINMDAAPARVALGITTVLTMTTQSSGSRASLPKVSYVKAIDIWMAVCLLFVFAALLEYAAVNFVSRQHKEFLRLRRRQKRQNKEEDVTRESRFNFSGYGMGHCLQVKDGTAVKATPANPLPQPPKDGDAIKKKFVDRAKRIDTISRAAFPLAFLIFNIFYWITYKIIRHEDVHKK
Chain of Glycine receptor subunit alpha-2/beta (P48167 whole entry): as the sequence (P48167 whole entry, one chain of several) above
Chain of Neuronal acetylcholine receptor subunit alpha-7 (P36544 whole entry): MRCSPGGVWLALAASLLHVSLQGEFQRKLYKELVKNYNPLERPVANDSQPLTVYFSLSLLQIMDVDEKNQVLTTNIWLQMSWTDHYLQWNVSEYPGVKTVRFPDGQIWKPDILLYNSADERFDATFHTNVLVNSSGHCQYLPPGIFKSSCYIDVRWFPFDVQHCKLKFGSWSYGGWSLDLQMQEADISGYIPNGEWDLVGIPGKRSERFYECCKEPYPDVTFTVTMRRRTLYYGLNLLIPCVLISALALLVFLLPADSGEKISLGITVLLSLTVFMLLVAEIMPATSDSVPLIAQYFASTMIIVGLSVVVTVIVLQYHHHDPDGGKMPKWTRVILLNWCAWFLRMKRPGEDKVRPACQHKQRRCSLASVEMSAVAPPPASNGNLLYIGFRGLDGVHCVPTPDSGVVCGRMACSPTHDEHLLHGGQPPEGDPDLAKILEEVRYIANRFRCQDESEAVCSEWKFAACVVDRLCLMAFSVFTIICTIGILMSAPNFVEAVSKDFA
Chain of GABA-A receptor; alpha-1/beta-2/gamma-2 (P14867 whole entry): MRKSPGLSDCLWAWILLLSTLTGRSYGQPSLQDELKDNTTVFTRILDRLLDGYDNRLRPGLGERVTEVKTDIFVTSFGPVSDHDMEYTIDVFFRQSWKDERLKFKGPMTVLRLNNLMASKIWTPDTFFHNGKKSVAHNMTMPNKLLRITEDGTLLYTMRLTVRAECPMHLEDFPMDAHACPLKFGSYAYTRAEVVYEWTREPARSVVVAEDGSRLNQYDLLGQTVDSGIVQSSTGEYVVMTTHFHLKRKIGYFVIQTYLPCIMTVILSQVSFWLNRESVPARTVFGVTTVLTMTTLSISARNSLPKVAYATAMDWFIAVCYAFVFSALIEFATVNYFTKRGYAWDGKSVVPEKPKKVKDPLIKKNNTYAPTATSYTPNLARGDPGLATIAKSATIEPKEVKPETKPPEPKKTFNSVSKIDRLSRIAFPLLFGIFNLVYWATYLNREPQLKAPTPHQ
Chain of GABA-A receptor; alpha-1/beta-2/gamma-2 (P47870 whole entry): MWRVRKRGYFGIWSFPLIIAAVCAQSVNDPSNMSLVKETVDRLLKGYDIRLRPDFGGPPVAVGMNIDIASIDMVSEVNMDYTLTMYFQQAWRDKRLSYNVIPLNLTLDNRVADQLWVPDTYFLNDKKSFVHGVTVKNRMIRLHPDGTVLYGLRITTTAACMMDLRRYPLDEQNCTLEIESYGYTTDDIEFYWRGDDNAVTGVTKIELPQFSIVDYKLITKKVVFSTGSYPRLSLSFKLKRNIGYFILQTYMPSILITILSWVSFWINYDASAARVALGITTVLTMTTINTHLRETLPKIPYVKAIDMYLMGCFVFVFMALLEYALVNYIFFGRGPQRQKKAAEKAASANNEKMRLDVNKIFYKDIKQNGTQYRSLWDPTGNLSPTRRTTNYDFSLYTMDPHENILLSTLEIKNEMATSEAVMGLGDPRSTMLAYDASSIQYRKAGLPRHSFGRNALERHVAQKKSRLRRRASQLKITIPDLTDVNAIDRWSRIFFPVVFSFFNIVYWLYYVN
Chain of GABA-A receptor; alpha-1/beta-2/gamma-2 (P18507 whole entry): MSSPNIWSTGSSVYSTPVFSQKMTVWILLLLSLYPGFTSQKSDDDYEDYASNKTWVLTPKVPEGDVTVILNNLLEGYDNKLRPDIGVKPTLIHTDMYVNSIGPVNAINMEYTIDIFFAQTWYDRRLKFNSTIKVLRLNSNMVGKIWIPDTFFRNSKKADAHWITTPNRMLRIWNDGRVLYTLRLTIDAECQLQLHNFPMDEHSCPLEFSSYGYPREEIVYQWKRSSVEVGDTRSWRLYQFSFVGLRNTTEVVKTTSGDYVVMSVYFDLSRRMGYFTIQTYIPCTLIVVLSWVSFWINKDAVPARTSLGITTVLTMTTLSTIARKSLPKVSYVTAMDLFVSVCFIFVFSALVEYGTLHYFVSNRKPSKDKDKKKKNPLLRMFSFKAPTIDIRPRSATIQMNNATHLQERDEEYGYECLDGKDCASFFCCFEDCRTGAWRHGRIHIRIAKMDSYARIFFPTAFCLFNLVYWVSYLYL
Chain of Gamma-aminobutyric acid receptor subunit alpha-1/beta-3/gamma-2 (P18508 whole entry): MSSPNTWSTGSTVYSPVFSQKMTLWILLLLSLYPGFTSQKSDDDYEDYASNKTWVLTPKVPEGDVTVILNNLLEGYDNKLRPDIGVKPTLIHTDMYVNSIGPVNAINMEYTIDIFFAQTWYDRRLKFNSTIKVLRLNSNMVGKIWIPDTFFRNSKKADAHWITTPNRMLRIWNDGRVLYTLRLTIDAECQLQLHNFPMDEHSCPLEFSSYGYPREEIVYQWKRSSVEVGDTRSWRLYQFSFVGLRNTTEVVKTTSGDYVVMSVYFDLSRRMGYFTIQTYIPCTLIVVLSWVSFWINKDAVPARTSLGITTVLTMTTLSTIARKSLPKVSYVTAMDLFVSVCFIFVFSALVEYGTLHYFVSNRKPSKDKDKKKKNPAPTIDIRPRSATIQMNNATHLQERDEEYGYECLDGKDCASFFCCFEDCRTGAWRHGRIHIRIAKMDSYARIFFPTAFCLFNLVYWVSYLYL
Chain of Gamma-aminobutyric acid receptor subunit alpha-1/beta-3/gamma-2 (P62813 whole entry): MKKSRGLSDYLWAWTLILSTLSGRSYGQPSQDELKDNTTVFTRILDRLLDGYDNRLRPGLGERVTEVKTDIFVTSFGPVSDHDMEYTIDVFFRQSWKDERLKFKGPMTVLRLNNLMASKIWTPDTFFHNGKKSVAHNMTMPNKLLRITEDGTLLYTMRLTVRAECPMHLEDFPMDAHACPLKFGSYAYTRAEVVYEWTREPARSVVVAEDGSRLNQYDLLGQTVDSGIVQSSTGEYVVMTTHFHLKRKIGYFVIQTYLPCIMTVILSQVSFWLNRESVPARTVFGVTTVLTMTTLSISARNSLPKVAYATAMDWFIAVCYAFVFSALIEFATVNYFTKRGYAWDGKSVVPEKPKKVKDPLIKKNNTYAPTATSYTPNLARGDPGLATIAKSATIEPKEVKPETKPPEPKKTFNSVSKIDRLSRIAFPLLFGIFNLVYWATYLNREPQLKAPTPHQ
Chain of Gamma-aminobutyric acid receptor subunit alpha-1/beta-3/gamma-2 (P63079 whole entry): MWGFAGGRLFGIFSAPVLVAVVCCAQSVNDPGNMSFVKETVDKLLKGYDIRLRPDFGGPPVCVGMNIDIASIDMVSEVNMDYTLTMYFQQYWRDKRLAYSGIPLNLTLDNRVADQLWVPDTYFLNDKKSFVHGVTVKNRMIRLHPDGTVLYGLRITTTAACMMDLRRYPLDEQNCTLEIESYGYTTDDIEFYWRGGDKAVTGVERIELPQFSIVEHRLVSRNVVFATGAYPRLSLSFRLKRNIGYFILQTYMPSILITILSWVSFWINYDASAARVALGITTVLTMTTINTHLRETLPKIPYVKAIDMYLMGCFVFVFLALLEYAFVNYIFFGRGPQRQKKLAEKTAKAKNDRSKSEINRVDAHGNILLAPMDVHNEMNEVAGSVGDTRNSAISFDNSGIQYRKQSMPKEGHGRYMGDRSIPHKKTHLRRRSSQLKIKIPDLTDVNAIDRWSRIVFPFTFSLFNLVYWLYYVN

As for `C[C@@]1(O)CC[C@H]2[C@H](CC[C@@H]3[C@@H]2CC[C@]2(C)[C@@H](C(=O)Cn4cc(C#N)cn4)CC[C@@H]32)C1` [ZURANOLONE], the concentration for a half-maximal effect (EC50) was determined as 163 nM in assay [1] and 374 nM in assay [2].

For `C#CCNc1nc(NCCCCC2CCN(Cc3ccccc3)CC2)c(C#N)cc1C#N`, the values for the IC50 in [3] and in assay [4] were 1400 nM and 320 nM, respectively.

In the case of `C#Cc1ccc2c(c1)C(c1ccccc1F)=N[C@H](C)c1c(C(=O)NC)ncn1-2`, the Ki came out at 850 nM in assay [5], 360 nM in assay [6], 660 nM in assay [7] and 55 nM in assay [8].

In the case of `CC1CC(=O)C=C(Nc2ccc(OC(F)(F)F)cc2)C1` (centres undefined), the EC50 in assay [9] was found to be 24500 nM.

In the case of `C=C[C@]12CN(C)[C@@H]3[C@H]4CO[C@H](C[C@H]41)[C@]1(C(=O)Nc4ccccc41)[C@@H]32` [GELSEMINE], the EC50 in assay [10] stood at 590 nM. Besides, in assay [11], the fold change (FC) worked out at 0.55. The IC50 in [12], in assay [13] and in assay [14] was 30000 to 50000 nM each time.
